Patent publication US20140275090A1, “BILE ACID RECYCLING INHIBITORS FOR TREATMENT OF PRIMARY SCLEROSING CHOLANGITIS AND INFLAMMATORY BOWEL DISEASE” (Lumena Pharmaceuticals, Inc., priority 2013, published 2014)

Test system: fecal bile acids
Assay: Fecal bile acid measurement, rats dosed 4 days
Assay type: in vivo, Wistar rat
Details: for Increase over Vehicle (Delta): fecal bile acids, rat, 4 days
Method: Male Wistar rats (Charles River Laboratories) weighing 275-300 grams were single-housed in a constant temperature environment with alternating 12 hour light and dark cycles. All animals had continuous access to a commercial rodent diet as well as water. In each study rats were randomly assigned to either vehicle or treatment groups and were administered intragastric doses of drug dissolved in aqueous 0.2% (v/v) Tween 80 (2 ml/kg body weight). The animals were dosed in the morning between 9:00 and 10:00 a.m. for four consecutive days. Fecal samples were collected on papers underneath each cage during the final 48 hour period of the study and analyzed for bile acid content.
Cage papers containing the 48-hour fecal samples were collected at approximately 9:00 a.m. on the final day and used to determine the individual fecal bile acid (FBA) concentration for each animal. Fecal samples from each rat were weighed and a weight of distilled water (1 gram/mL) equal to 2 times the total weight of feces was added to each sample container (e.g., 20 mL water to 10 grams feces). The containers were stored overnight at 4° C. Each sample was homogenized for approximately 45 seconds using a small food processor to yield a homogeneous slurry. 1.4 grams of the homogenate was weighed into 16×100 polypropylene tubes and 2.6 mL of tertiary butanol/distilled water (2:0.6) added to yield a final concentration of 50% (v/v) tertiary butanol in water. The sample was extracted by incubation for 45 minutes in a 37° C. water bath, and subjected to centrifugation at 3000×g for 13 minutes and the supernatant extract collected.
The concentration of bile acids […] in the extract was determined using a 96-well enzymatic assay system (4,5). 20 μl aliquots of each butanol extract was added to two sets of triplicate wells in a 96-well assay plate (one set on each half of the plate). Standardized sodium taurocholate solutions (0.2 and 0.9 mM) and standardized fecal extract solutions (previously made from pooled fecal samples collected from control and drug-treated rats) were analyzed in parallel to provide a bile acid standard curve and internal quality control samples, respectively. 20 μl aliquots of the sodium taurocholate standard were serially diluted to generate a standard curve and were added to two separate sets of triplicate wells.
To each well, 230 μl of reaction mixture containing 1M hydrazine hydrate, 0.1 M pyrophosphate and 0.46 mg/ml NAD was added. […] Following a 60 minute incubation at room temperature, the optical density at 340 nm was measured and the mean of each set of triplicate wells was calculated. […] A mean value for the increase in FBA for each group was determined and compared to the vehicle group used, to determine compound dosing efficacy. […]

## CCCCC1(CCCC)CS(=O)(=O)c2ccc(N(C)C)cc2[C@@H](c2ccc(OCc3ccc(C[N+]45CCN(CC4)CC5)cc3)cc2)[C@H]1O [LUM001]
Q.D. 0.002 mg/kg/day
  Increase over Vehicle (Delta): 4.1
Q.D. 0.008 mg/kg/day
  Increase over Vehicle (Delta): 5.9
Q.D. 0.4 mg/kg/day
  Increase over Vehicle (Delta): 47.0
rats, all doses
  effect on fecal bile acids: significantly increased
